Laboratory results published in US9974726B2, “Gentle cleansing compositions with makeup removal properties” (L'OREAL, priority 2016, dated 2018).

Tested on: skin of an arm
Test: Hydration Test (corneometer)
Type: in vivo
Details: n=10
Procedure: Each of the compositions in the table below were individually applied to the skin of an arm (n=10) and then removed with a moist cotton pad. A corneometer was used to take initial measurements, and subsequent measurements at 1, 2, and 6 hour time points.

CCCCCCCCCCCCOS(=O)(=O)[O-].[Na+] [5% sodium lauryl sulfate, sodium lauryl sulfate]
corneometer measurement, 1 hours (1 hour after application and removal with moist cotton pad, * = statistically significant): 34.2
corneometer measurement, 2 hours (2 hours after application and removal, * = statistically significant): 33.5
corneometer measurement, 6 hours (6 hours after application and removal, * = statistically significant): 32.4
corneometer measurement, 0 hours (initial measurement): 30.7
